Source: US8658670B2 (Crestone, Inc., priority 2006, dated 2014)

Columns and labels:
[1] = test system: C. difficile; assay: C. difficile-infected hamster survival study; assay type: in vivo, hamsters
Experimental: Animal studies were performed to determine the efficacy of MetRS inhibitors for treating C. difficile-infections. The MetRS inhibitors tested were two compounds of formula (II), 5-[3-((R)-6,8-Dibromo-chroman-4-ylamino)-propylamino]-4H-thieno[3,2-b]pyridine-7-one (both racemic mixture and the R enantiomer) and 5-[3-((R)-8-Bromo-6-chloro-chroman-4-ylamino)-propylamino]-4H-thieno[3,2-b]pyridin-7-one. Also tested was a compound of formula (IV), 2-(3-{3,5-Dibromo-2-[2-(4-methyl-thiazol-5-yl)-ethoxy]-benzylamino}-propylamino)-1H-quinolin-4-one.
Results were compared to C. difficile-infected hamsters treated with the conventional antibiotic, vancomycin. Infected hamsters were treated with either a solution or suspension of a MetRS inhibitor at 5 to 50 mg/kg or vancomycin at 2.5, 5 or 25 mg/kg. There were eight hamsters per group with the final endpoint of the experiment being survival. Expired hamsters were examined for GI condition.

[2] = test system: clinical isolates of C. difficile; assay: Sporulation of C. difficile clinical isolates; assay type: cell-based
[3] = test system: C. difficile strain ATCC43255 toxin A; assay: Toxin A production in high cell density stationary phase cultures (ELIFA); assay type: cell-based; conditions: 4 day old stationary phase cultures
Experimental: C. difficile strain ATCC43255 was grown and maintained anaerobically on CDC anaerobe agar (Remel, Lenexa, Kans.). To test the effect of antibacterial agents on growth, cells were grown anaerobically for 40 h at 35° C. in 96-well brain heart infusion (BHI) broth cultures, with an initial inoculum of 10^6 CFU/mL. To test the effect of antibacterial agents on toxin production at high C. difficile cell densities, the cells were grown anaerobically for 24 h at 35° C. in 96-well brain heart infusion (BHI) broth cultures. Spent medium was then replaced with fresh broth containing MetRS inhibitors and control agents at a concentration range of 0.015-16 μg/mL. After 4 days, growth and cell viability were monitored by optical density measurements at 595 nm and by culture on CDC anaerobe agar, respectively. Culture supernatants were collected, and toxin A was detected by ELIFA (enzyme-linked immuno-flow assay) using an anti toxin A monoclonal antibody (Novus Biologicals, Centennial, Colo.).

CN[C@H](CC(C)C)C(=O)N[C@H]1C(=O)N[C@@H](CC(N)=O)C(=O)N[C@H]2C(=O)N[C@H]3C(=O)N[C@H](C(=O)N[C@H](C(=O)O)c4cc(O)cc(O)c4-c4cc3ccc4O)[C@H](O)c3ccc(c(Cl)c3)Oc3cc2cc(c3O[C@@H]2O[C@H](CO)[C@@H](O)[C@H](O)[C@H]2O[C@H]2C[C@](C)(N)[C@H](O)[C@H](C)O2)Oc2ccc(cc2Cl)[C@H]1O [vancomycin, reference compound]
survival ([1]; Day 28, vancomycin treatment (2.5, 5 or 25 mg/kg)): 0-10%

O=c1cc(NCCCN[C@@H]2CCOc3c(Br)cc(Br)cc32)[nH]c2ccsc12 [5-[3-((R)-6,8-Dibromo-chroman-4-ylamino)-propylamino]-4H-thieno[3,2-b]pyridine-7-one]
efficacy ranking among tested MetRS inhibitors ([1]; infected hamsters, survival): best efficacy | spores (ratio of spores to total cells) ([2]; 0.25×MIC, 96 hours, all strains): < 2% | spores (ratio of spores to total cells) ([2]; 0.5×MIC, 96 hours, all strains): < 1%

O=c1cc(NCCCNC2CCOc3c(Br)cc(Br)cc32)[nH]c2ccsc12 (stereo not drawn) [5-[3-(6,8-Dibromo-chroman-4-ylamino)-propylamino]-4H-thieno[3,2-b]pyridin-7-one]
concentration inhibiting toxin production [3]: 0.25 µg/mL

Cc1ncc([N+](=O)[O-])n1CCO [metronidazole, reference compound]
spores (ratio of spores to total cells) ([2]; subMIC concentrations, all tested strains): up to 100%

Cc1ncsc1CCOc1c(Br)cc(Br)cc1CNCCCNc1cc(=O)c2sccc2[nH]1
concentration inhibiting toxin production [3]: 0.25 µg/mL

Cl.Cl.Cl.O=c1cc(NCCCNC2CCNc3c(Br)cc(Br)cc32)[nH]c2ccsc12 (stereo not drawn) [5-[3-(6,8-Dibromo-1,2,3,4-tetrahydro-quinolin-4-ylamino)-propylamino]-4H-thieno[3,2-b]pyridin-7-one tri-hydrochloride]
concentration inhibiting toxin production [3]: 0.25 µg/mL

Cl.Cl.O=c1cc(NCCCN[C@@H]2CCOc3c(Br)cc(Br)cc32)[nH]c2ccsc12 [R-(+)-5-[3-(6,8-Dibromo-chroman-4-ylamino)-propylamino]-4H-thieno[3,2-b]pyridin-7-one di-hydrochloride]
concentration inhibiting toxin production [3]: 0.25 µg/mL
